{"source": "ChEMBL document CHEMBL5154738", "about": "“Design, synthesis and structural-activity relationship studies of phanginin A derivatives for regulating SIK1-cAMP/CREB signaling to suppress hepatic gluconeogenesis” (Eur J Med Chem, 2022)", "key": {"[1]": {"test": "Inhibition of gluconeogenesis in C57BL/6J mouse primary hepatocytes assessed as inhibition of glucagon-stimulated glucose production at 5 uM preincubated for 1.5 hrs followed by lactate and pyruvate addition and later stimulated with glucagon for 4 hrs", "format": "functional", "details": "Hepatocyte, time 5.5 hrs"}, "[2]": {"test": "Inhibition of gluconeogenesis in C57BL/6J mouse primary hepatocytes assessed as inhibition of glucagon-stimulated glucose production at 2.5 uM preincubated for 1.5 hrs followed by lactate and pyruvate addition and later stimulated with glucagon for 4 hrs", "format": "functional", "details": "Hepatocyte, time 5.5 hrs"}, "[3]": {"test": "Cytotoxicity against C57BL/6J mouse primary hepatocytes assessed as cell viability at 20 uM incubated for 24 hrs by MTT assay relative to control", "format": "toxicity, cell-based, Hepatocyte", "details": "read-out: Activity"}, "Mus musculus [4]": {"system": "Mus musculus", "test": "Anti-hyperglycemic activity in ob/ob mouse assessed as reduction in fasting blood glucose level at 100 mg/kg, po administered once daily and measured after 21 days relative to control", "format": "functional", "details": "504 h, time 21 day"}, "Hepatocyte [5]": {"system": "Hepatocyte", "test": "Inhibition of gluconeogenesis in C57BL/6J mouse primary hepatocytes assessed as inhibition of glucagon-stimulated glucose production preincubated for 1.5 hrs followed by lactate and pyruvate addition and later stimulated with glucagon for 4 hrs", "format": "functional, cell-based", "details": "dose 2.5-10 µM, time 5.5 hrs, DDE = dose-dependent effect"}, "[6]": {"test": "Inhibition of gluconeogenesis in C57BL/6J mouse primary hepatocytes assessed as inhibition of glucagon-stimulated glucose production at 10 uM preincubated for 1.5 hrs followed by lactate and pyruvate addition and later stimulated with glucagon for 4 hrs", "format": "functional", "details": "Hepatocyte, time 5.5 hrs"}, "[7]": {"test": "Cytotoxicity against C57BL/6J mouse primary hepatocytes assessed as cell viability at 10 uM incubated for 24 hrs by MTT assay relative to control", "format": "toxicity, cell-based, Hepatocyte", "details": "read-out: Activity"}, "[8]": {"test": "Cytotoxicity against C57BL/6J mouse primary hepatocytes assessed as cell viability at 50 uM incubated for 24 hrs by MTT assay relative to control", "format": "toxicity, cell-based, Hepatocyte", "details": "read-out: Activity"}, "[9]": {"test": "Cytotoxicity against C57BL/6J mouse primary hepatocytes assessed as cell viability at 100 uM incubated for 24 hrs by MTT assay relative to control", "format": "toxicity, cell-based, Hepatocyte", "details": "read-out: Activity"}, "[10]": {"test": "Cytotoxicity against C57BL/6J mouse primary hepatocytes assessed as cell viability at 200 uM incubated for 24 hrs by MTT assay relative to control", "format": "toxicity, cell-based, Hepatocyte", "details": "read-out: Activity"}, "[11]": {"target": "Serine/threonine-protein kinase SIK1 (Mus musculus) (UniProt Q60670)", "sequence (Q60670 whole entry)": "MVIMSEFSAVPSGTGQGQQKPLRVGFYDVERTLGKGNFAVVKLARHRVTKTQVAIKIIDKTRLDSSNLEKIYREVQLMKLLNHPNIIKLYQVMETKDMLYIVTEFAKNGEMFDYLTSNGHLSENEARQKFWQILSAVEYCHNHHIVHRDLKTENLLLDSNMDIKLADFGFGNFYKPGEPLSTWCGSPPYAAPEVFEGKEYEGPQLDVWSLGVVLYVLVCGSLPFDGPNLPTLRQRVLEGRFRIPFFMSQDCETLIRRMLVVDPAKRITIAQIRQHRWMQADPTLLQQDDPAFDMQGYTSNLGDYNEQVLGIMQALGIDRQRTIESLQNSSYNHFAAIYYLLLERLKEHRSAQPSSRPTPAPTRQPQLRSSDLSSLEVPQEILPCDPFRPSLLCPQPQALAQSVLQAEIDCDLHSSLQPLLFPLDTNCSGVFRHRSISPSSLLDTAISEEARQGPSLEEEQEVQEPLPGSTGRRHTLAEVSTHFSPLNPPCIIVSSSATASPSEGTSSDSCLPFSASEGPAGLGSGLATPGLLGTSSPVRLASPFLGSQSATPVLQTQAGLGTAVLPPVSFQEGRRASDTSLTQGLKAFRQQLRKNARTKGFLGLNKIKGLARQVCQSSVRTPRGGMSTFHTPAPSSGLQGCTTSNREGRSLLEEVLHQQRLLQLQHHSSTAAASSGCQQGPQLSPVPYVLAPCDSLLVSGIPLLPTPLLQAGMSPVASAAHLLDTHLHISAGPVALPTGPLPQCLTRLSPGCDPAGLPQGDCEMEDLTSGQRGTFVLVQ", "test": "Activation of SIK1 in C57BL/6J mouse primary hepatocytes assessed as increase in SIK1 phosphorylation at Thr182 residue measured after 2 hrs by western blot analysis", "format": "cell-based", "details": "Primary hepatocyte, filed as activator, dose 2.5-10 µM, DDE = dose-dependent effect"}, "Hepatocyte [12]": {"system": "Hepatocyte", "test": "Inhibition of gluconeogenesis in C57BL/6J mouse primary hepatocytes assessed as inhibition of glucose production preincubated for 1.5 hrs followed by lactate and pyruvate addition", "format": "functional, cell-based", "details": "dose 2.5-10 µM, DDE = dose-dependent effect"}, "[13]": {"target": "Serine/threonine-protein kinase SIK1 (Mus musculus) (UniProt Q60670)", "test": "Activation of SIK1 in C57BL/6J mouse primary hepatocytes assessed as decrease in glucagon-stimulated intracellular cAMP accumulation by ELISA", "format": "cell-based", "details": "Primary hepatocyte, filed as activator, dose 2.5-10 µM, DDE = dose-dependent effect"}, "[14]": {"target": "Serine/threonine-protein kinase SIK1 (Mus musculus) (UniProt Q60670)", "test": "Activation of SIK1 in C57BL/6J mouse primary hepatocytes assessed as decrease in CREB phosphorylation at 2.5 to 10 uM incubated for 2 hrs by western blot analysis", "format": "cell-based", "details": "Primary hepatocyte, filed as activator, dose 2.5-10 µM, DDE = dose-dependent effect"}, "[15]": {"target": "Serine/threonine-protein kinase SIK1 (Mus musculus) (UniProt Q60670)", "test": "Activation of SIK1 in C57BL/6J mouse primary hepatocytes assessed as decrease in glucagon-stimulated CREB phosphorylation at 2.5 to 10 uM incubated for 2 hrs by western blot analysis", "format": "cell-based", "details": "Primary hepatocyte, filed as activator, dose 2.5-10 µM, DDE = dose-dependent effect"}, "Mus musculus [16]": {"system": "Mus musculus", "test": "Acute hypoglycemic activity in type 2 diabetic ob/ob mouse assessed as reduction in fasting blood glucose level at 100 mg/kg, po administered as single dose and measured for 10 hrs", "format": "functional, organism-based"}, "Mus musculus [17]": {"system": "Mus musculus", "test": "Anti-hyperglycemic activity in ob/ob mouse assessed as reduction in non-fasting blood glucose level at 100 mg/kg, po administered once daily and measured after 8 days relative to control", "format": "functional", "details": "192 h, time 8 day"}, "Mus musculus [18]": {"system": "Mus musculus", "test": "Anti-hyperglycemic activity in ob/ob mouse assessed as reduction in fasting blood glucose level at 100 mg/kg, po administered once daily and measured after 4 days relative to control", "format": "functional", "details": "96 h, time 4 day"}, "Mus musculus [19]": {"system": "Mus musculus", "test": "Anti-hyperglycemic activity in ob/ob mouse assessed as reduction in non-fasting blood glucose level at 100 mg/kg, po administered once daily and measured after 21 days relative to control", "format": "functional", "details": "504 h, time 21 day"}, "Mus musculus [20]": {"system": "Mus musculus", "test": "Anti-hyperlipidemic activity in ob/ob mouse assessed as reduction in serum triglyceride level at 100 mg/kg, po administered once daily for 21 days", "format": "functional, organism-based", "details": "time 21.0 day"}, "Mus musculus [21]": {"system": "Mus musculus", "test": "Anti-hyperlipidemic activity in ob/ob mouse assessed as reduction in total cholesterol level in serum at 100 mg/kg, po administered once daily for 21 days", "format": "functional, organism-based", "details": "time 21.0 day"}, "Mus musculus [22]": {"system": "Mus musculus", "test": "In vivo activation of SIK1 in ob/ob mouse assessed as increase in SIK1 phosphorylation at Thr182 residue in liver at 100 mg/kg, po administered once daily for 21 days by western blot analysis", "format": "functional, organism-based", "details": "time 21.0 day"}, "Mus musculus [23]": {"system": "Mus musculus", "test": "In vivo activation of SIK1 in ob/ob mouse assessed as decrease in CREB phosphorylation in liver at 100 mg/kg, po administered once daily for 21 days by western blot analysis", "format": "functional, organism-based", "details": "time 21.0 day"}, "[24]": {"test": "Inhibition of gluconeogenesis in C57BL/6J mouse primary hepatocytes assessed as inhibition of glucagon-stimulated glucose production at 0.5 mM preincubated for 1.5 hrs followed by lactate and pyruvate addition and later stimulated with glucagon for 4 hrs", "format": "functional", "details": "Hepatocyte, 5.5 h"}}, "note": "The source made the active and inactive calls. No cut-off for these calls is given here."}
{"smiles": "COC(=O)[C@@]12CCCC3([C@H](OCCO)OC1)[C@H]2CC[C@H]1[C@@H](C)c2ccoc2C[C@@H]13", "values": [{"measurement": "inhibition at 5 µM", "setting": "[1]", "value": 79.6, "unit": "%"}, {"measurement": "inhibition at 2.5 µM", "setting": "[2]", "value": 53.4, "unit": "%"}, {"measurement": "viability at 24 h, 20 µM", "setting": "[3]", "value": 86.1, "unit": "%"}, {"measurement": "inhibition in vivo at 100 mg/kg", "setting": "Mus musculus [4]", "value": 41.2, "unit": "%"}, {"measurement": "inhibition", "setting": "Hepatocyte [5]", "value": "Dde"}, {"measurement": "inhibition at 10 µM", "setting": "[6]", "value": 91.4, "unit": "%"}, {"measurement": "viability at 24 h, 10 µM", "setting": "[7]", "value": 98.4, "unit": "%"}, {"measurement": "viability at 24 h, 50 µM", "setting": "[8]", "value": 90.1, "unit": "%"}, {"measurement": "viability at 24 h, 100 µM", "setting": "[9]", "value": 11.1, "unit": "%"}, {"measurement": "viability at 24 h, 200 µM", "setting": "[10]", "value": 9.2, "unit": "%"}, {"measurement": "Activity", "setting": "[11]", "value": "Dde"}, {"measurement": "inhibition", "setting": "Hepatocyte [12]", "value": "Dde"}, {"measurement": "Activity", "setting": "[13]", "value": "Dde"}, {"measurement": "Activity", "setting": "[14]", "value": "Dde"}, {"measurement": "Activity", "setting": "[15]", "value": "Dde"}, {"measurement": "Activity", "setting": "Mus musculus [16]", "value": "Active"}, {"measurement": "inhibition in vivo at 100 mg/kg", "setting": "Mus musculus [17]", "value": 41.1, "unit": "%"}, {"measurement": "inhibition in vivo at 100 mg/kg", "setting": "Mus musculus [18]", "value": 32.3, "unit": "%"}, {"measurement": "inhibition in vivo at 100 mg/kg", "setting": "Mus musculus [19]", "value": 37.6, "unit": "%"}, {"measurement": "Activity", "setting": "Mus musculus [20]", "value": "Active"}, {"measurement": "Activity", "setting": "Mus musculus [21]", "value": "Active"}, {"measurement": "Activity", "setting": "Mus musculus [22]", "value": "Active"}, {"measurement": "Activity", "setting": "Mus musculus [23]", "value": "Active"}]}
{"smiles": "CN(C)C(=N)NC(=N)N", "note": "[METFORMIN]", "values": [{"measurement": "inhibition at 500 µM", "setting": "[24]", "value": 51.5, "unit": "%"}]}
